Results from patent US20070287691A1, “METHOD FOR ACTIVATING THE LIPID CATABOLIC METABOLISM IN ENTERIC EPITHELIUM AND IMPROVING THE LIPID METABOLISM IN ENTERIC EPITHELIUM” (KAO CORPORATION, priority 2001, published 2007).

Tested on: rat small-intestine epithelial cell strain, IEC-6
Test: Inhibition test of triacylglycerol synthesis in the small intestine epithelium (Nile Red, FACS)
Format: cell-based
Details: relative value, linoleic acid = 100; 200 μM, 24 hours
Experimental: Using FCS (fetal calf serum)-free, Dulbecco's modified Eagle's medium (D-MEM) with 5% FBS and 70 μg/mL kanamycin added therein, a rat small-intestine epithelial cell strain, IEC-6, was incubated under 5% CO2 at 37° C. […] Twenty-four hours later, the individual cultures were washed with PBS and subsequent to treatment with tripsin, were peeled off from Culture dishes. Those cultures were separately suspended in portions of HBSS which contained Nile Red (100 ng/mL). Subsequent to incubation at room temperature for […], FACS analysis was conducted. From average fluorescence intensities, synthesized quantities of triacylglycerols were measured.

Row | SMILES | Fluorescence intensity (synthesized quantity of triacylglycerols)
1 | CCCCC/C=C\C/C=C\C/C=C\C/C=C\CCCC(=O)O [Arachidonic acid] | 87
2 | CC/C=C\C/C=C\C/C=C\C/C=C\C/C=C\C/C=C\CCC(=O)O [Docosahexaenoic acid] | 49
3 | CC/C=C\C/C=C\C/C=C\C/C=C\C/C=C\CCCC(=O)O [Eicosapentaenoic acid] | 52
4 | CCCCC/C=C\C/C=C\CCCCCCCC(=O)O [Linoleic acid] | 100
5 | CCCCCCCC/C=C\CCCCCCCC(=O)O [Oleic acid] | 191
6 | CC/C=C\C/C=C\C/C=C\CCCCCCCC(=O)O [α-Linolenic acid] | 42
7 | CCCCC/C=C\C/C=C\C/C=C\CCCCC(=O)O [γ-Linolenic acid] | 70
